# Test results reported in patent US11980633B2, “Method for treating cancer using a combination of DNA-damaging agents and DNA-PK inhibitors” (Vertex Pharmaceuticals Incorporated, priority 2016, dated 2024).
# Columns and labels:
# [1] = tested on: primary human hepatocellular carcinoma (HCC) tumor; experiment: TCA: Compound B-1 with doxorubicin hydrochloride, primary HCC tumor; format: cell-based; settings: tumor L090923, Liver
# Description: (§1) In both studies, cell viability was assessed after 6 days in culture. Statistical analysis of the combination matrix was performed to assess whether synergy, additivity, or antagonism of the combination treatments were observed.
# (§2) Materials: Primary patient samples (See Tables 16 and 17, below) were excised from mice when they reached 500 mg to 1000 mg in size and processed immediately, or after overnight shipment. Tumors were serially passaged by subcutaneous implantation of 50 mg to 150 mg fragments into the flanks of immunocompromised (nude) mice. Tumors were used within the first 5 or 7 passages.
# Tumor Chemosensitivity Assay (TCA): Primary tumor samples were grown and serially passaged in immunocompromised mice. Tumors were mechanically dissociated into small fragments (1 mm to 2 mm) with scalpels in phosphate buffered saline (PBS or RPMI) and centrifuged at 200×g for 5 minutes at room temperature in 50 mL centrifuge tubes. Samples were resuspended in 10 mL of cell dissociation reagent and enzymatically digested with mechanical agitation for 1 to 3 hours at 37° C., 5% CO2 to a single cell suspension. Ten mL of complete RPMI-1640 media was added to the cell mixture and pipetted up and down 4 to 5 times. The mixture was then passed through a 70 μm or 100 μm mesh strainer to remove undigested tumor. […] Cells were diluted in Trypan blue, and viable cells that excluded the dye were counted. […]
# [2] = tested on: primary human tumors (NSCLC, SCLC); experiment: TCA: Compound B-1 with etoposide, primary lung tumors; format: cell-based
# Description: as §1, §2
# Tumor Chemosensitivity Assay (TCA): Primary tumor samples were grown and serially passaged in immunocompromised mice. Tumors were mechanically dissociated into small fragments (1 mm to 2 mm) with scalpels in phosphate buffered saline (PBS or RPMI) and centrifuged at 200×g for 5 minutes at room temperature in 50 mL centrifuge tubes. Samples were resuspended in 10 mL of cell dissociation reagent and enzymatically digested with mechanical agitation for 1 to 3 hours at 37° C., 5% CO2 to a single cell suspension. Ten mL of complete RPMI-1640 media was added to the cell mixture and pipetted up and down 4 to 5 times. The mixture was then passed through a 70 μm or 100 μm mesh strainer to remove undigested tumor. The filtrate was then centrifuged 200×g for 5 minutes at room temperature and resuspended in 20 mL complete RPMI-1640. This cell suspension was slowly layered onto 20 mL of room temperature Histopaque and centrifuged at 400×g for 15 minutes at room temperature without a brake. The interface was transferred to a new 50 mL centrifuge tube and 15 mL of complete RPMI-1640 was added. This suspension was centrifuged at 200×g at room temperature, and the resulting pellet was resuspended in 10 mL of complete PC-1 media, except for pancreatic tumors in which case Pancreatic Medium was used. Cells were diluted in Trypan blue, and viable cells that excluded the dye were counted. Only the larger, tumor cells were included in the cell count. Cells were diluted in complete PC-1 or Pancreatic media, as appropriate for the cells, and were plated at 15,000 to 20,000 cells per well in 100-135 μL in ultra-low attachment U-bottom plates.
# Compound Addition: For these studies, a 10 mM stock of the DNA-PK inhibitor (Compound B-1 or Compound B-2) was made in DMSO and used to add to cells from most tumors with HP D300 Digital Dispenser (Tecan US, Morrisville, NC, USA), or diluted into the appropriate media (PC-1 or pancreatic media) as a 5-10× stock and added to cells (OVX001 and ENX001, 005). PC-1, pancreatic media, and chemotherapeutics were also added so that final well volume was 150 μL. Doxorubicin was made as DMSO stock of 1 or 10 mM and added to cells for most tumors with HP D300 Digital Dispenser, or diluted into PC-1 as 5-10× stock and added to cells (OVX001 and ENX001, 005). Cisplatin (cis-diammine platinum(II), dichloride) was prepared fresh to 10 mM in warm (60° C.) distilled water and diluted in PC-1 as a 5-10× stock. […] Different starting concentrations, dose ranges, and number of doses were used for each experiment based on the response data available at the time.
# For bleomycin experiments, combinations with Compound B-1 at all concentrations were run in triplicate. A 6×3 matrix was designed on one plate, consisting of a 2-point concentration range of 0.73 μM and 2.2 μM Compound B-1 plus no treatment control, in 3 columns each of 6 wells. Bleomycin (plus ‘no treatment’ control) was added to 9 wells in rows of this plate. Similar 6×3 matrices were set up for additional agents with different starting concentrations for compound dilutions. For cisplatin experiments the starting concentration was 30 μM which was diluted 1:3. […] For doxorubicin hydrochloride experiments the starting concentration was 5 μM doxorubicin which was diluted 1:3. For gemcitabine experiments the starting concentration was 5 μM gemcitabine which was diluted 1:3. […]
structure (smiles),measurement,setting,value
CNC(=O)c1ccnc2c([C@H](C)CNc3cc(-c4cnc(C)nc4)ncn3)cccc12 [Compound B-1],Average Bliss score,[1],4
same,tumors that showed strong synergy,[2],100%
same,Average Bliss score,"[2]; tumor LUX013, Lung (SCLC)",15
same,Synergy/Additivity/Antagonism,"[2]; tumor LUX013, Lung (SCLC)",Strongly Synergistic (greater than 10 are considered strongly synergistic)
same,Average Bliss score,"[2]; tumor LUX031, Lung (SCLC)",16
same,Synergy/Additivity/Antagonism,"[2]; tumor LUX031, Lung (SCLC)",Strongly Synergistic (greater than 10 are considered strongly synergistic)
same,Average Bliss score,"[2]; tumor OD26749, Lung (NSCLC)",19
same,Synergy/Additivity/Antagonism,"[2]; tumor OD26749, Lung (NSCLC)",Strongly Synergistic (greater than 10 are considered strongly synergistic)
same,Average Bliss score,"[2]; tumor OD29498, Lung (NSCLC)",13
same,Synergy/Additivity/Antagonism,"[2]; tumor OD29498, Lung (NSCLC)",Strongly Synergistic (greater than 10 are considered strongly synergistic)
